Source: US10626112B2, “Heterocyclic sulfonamide derivative and medicine comprising same” (EA PHARMA CO., LTD., priority 2014, dated 2020)
pIC50: −log10 of the molar value.

Biological target: human TRPA1 (Homo sapiens (Human), UniProt O75762)
Assay: Measurement of TRPA1 antagonist activity (1): intracellular calcium increase
Type: cell-based
Settings: 293T cells transfected with human TRPA1 expression plasmid; allylisothiocyanate 20 μM stimulation; intracellular calcium fluorescence; read-out: hTRPA1 IC50
How it was run: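 Calcium-flux readout of TRPA1 block: compound given 10 min before 20 μM (final) allylisothiocyanate, fluorescence tracked 5 min. Cells were 293T transiently expressing human TRPA1, dye-loaded 1 hr in HBSS, 20 mM HEPES, pH 7.2. Inhibition scaled between agonist-only and buffer-only responses; IC50 by sigmoid fitting.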

Chain of human TRPA1 (O75762 whole entry): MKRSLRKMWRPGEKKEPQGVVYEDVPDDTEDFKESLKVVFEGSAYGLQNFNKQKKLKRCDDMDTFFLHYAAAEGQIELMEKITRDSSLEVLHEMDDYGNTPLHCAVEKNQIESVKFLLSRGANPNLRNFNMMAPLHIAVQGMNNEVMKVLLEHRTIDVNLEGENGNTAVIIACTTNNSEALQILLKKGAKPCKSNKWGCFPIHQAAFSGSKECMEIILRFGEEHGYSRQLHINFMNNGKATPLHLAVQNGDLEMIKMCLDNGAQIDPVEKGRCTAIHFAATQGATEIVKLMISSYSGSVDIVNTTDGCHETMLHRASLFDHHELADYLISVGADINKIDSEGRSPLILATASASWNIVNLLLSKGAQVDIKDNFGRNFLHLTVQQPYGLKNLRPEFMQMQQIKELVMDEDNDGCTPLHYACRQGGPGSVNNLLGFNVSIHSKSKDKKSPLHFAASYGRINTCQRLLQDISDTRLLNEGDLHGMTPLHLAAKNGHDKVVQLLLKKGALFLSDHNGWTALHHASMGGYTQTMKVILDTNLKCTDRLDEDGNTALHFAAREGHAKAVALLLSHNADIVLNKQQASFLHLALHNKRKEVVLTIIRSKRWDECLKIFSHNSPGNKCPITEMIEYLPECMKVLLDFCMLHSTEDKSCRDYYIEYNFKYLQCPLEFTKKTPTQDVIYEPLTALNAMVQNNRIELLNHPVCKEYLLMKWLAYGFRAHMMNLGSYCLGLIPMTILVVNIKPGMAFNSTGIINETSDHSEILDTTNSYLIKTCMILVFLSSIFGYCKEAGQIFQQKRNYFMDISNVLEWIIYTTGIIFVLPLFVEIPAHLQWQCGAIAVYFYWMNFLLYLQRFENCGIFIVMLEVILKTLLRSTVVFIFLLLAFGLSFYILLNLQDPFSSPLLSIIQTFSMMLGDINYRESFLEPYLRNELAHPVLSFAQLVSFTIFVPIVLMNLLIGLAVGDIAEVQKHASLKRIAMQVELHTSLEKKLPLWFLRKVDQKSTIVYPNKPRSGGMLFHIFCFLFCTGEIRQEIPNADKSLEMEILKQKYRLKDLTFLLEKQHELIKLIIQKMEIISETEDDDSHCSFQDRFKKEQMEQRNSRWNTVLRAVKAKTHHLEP

pIC50	SMILES
7.14	O=C(NCc1cc(-c2ccc(C(F)(F)F)nc2)cnn1)[C@@H]1CCCN1S(=O)(=O)c1cc2ccccc2o1 [Example 211, (2S)-1-(benzofuran-2-ylsulfonyl)-N-[[5-[6-(trifluoromethyl)-3-pyridyl]pyridazin-3-yl]methyl]pyrrolidine-2-carboxamide]
7.57	O=C(NCc1cc(-c2ccc(C(F)(F)F)cn2)cnn1)[C@@H]1CCCN1S(=O)(=O)c1cc2ccccc2o1 [Example 212, (2S)-1-(benzofuran-2-ylsulfonyl)-N-[[5-[5-(trifluoromethyl)-2-pyridyl]pyridazin-3-yl]methyl]pyrrolidine-2-carboxamide]
7.33	O=C(NCc1ccc(O)c(-c2ncc(C(F)(F)F)cn2)c1)[C@@H]1CCCN1S(=O)(=O)c1cc2ccccc2o1 [Example 213, (2S)-1-(benzofuran-2-ylsulfonyl)-N-[[4-hydroxy-3-[5-(trifluoromethyl)-pyrimidin-2-yl]phenyl]-methyl]pyrrolidine-2-carboxamide]
7.89	O=C(NCc1ccc(O)c(-c2cnc(C(F)(F)F)cn2)c1)[C@@H]1CCCN1S(=O)(=O)c1cc2ccccc2o1 [Example 214, (2S)-1-(benzofuran-2-ylsulfonyl)-N-[[4-hydroxy-3-[5-(trifluoromethyl)-pyrazin-2-yl]phenyl]-methyl]pyrrolidine-2-carboxamide]
8.68	O=C(NCc1cc(-c2ccc(C(F)(F)F)cn2)c(O)cn1)[C@@H]1CCCN1S(=O)(=O)c1cc2ccccc2o1 [Example 215, (2S)-1-(benzofuran-2-ylsulfonyl)-N-[[5-hydroxy-4-[5-(trifluoromethyl)-2-pyridyl]-2-pyridyl]methyl]pyrrolidine-2-carboxamide]
7.89	O=C(NC1(c2cc(Cl)cc(-c3ccc(C(F)(F)F)nc3)c2)CC1)[C@@H]1CCCN1S(=O)(=O)c1cc2ccccc2o1 [Example 216, (2S)-1-(benzofuran-2-ylsulfonyl)-N-[1-[3-chloro-5-[6-(trifluoromethyl)-3-pyridyl]phenyl]cyclopropyl]-pyrrolidine-2-carboxamide]
7.19	O=C(NC1(c2ccnc(-c3ccc(C(F)(F)F)cc3)c2)CC1)[C@@H]1CCCN1S(=O)(=O)c1cc2ccccc2o1 [Example 217, (2S)-1-(benzofuran-2-ylsulfonyl)-N-[1-[2-[4-(trifluoromethyl)phenyl]-4-pyridyl]cyclopropyl]-pyrrolidine-2-carboxamide]
7.02	O=C(NC1(c2ccnc(-c3ccc(C(F)(F)F)nc3)c2)CC1)[C@@H]1CCCN1S(=O)(=O)c1cc2ccccc2o1 [Example 218, (2S)-1-(benzofuran-2-ylsulfonyl)-N-[1-[2-[6-(trifluoromethyl)-3-pyridyl]-4-pyridyl]cyclopropyl]-pyrrolidine-2-carboxamide]
6.41	O=C(NCc1ccnc(-c2ccc(C(F)(F)F)cc2)c1)[C@@H]1CCCN1S(=O)(=O)c1cc2cccc(F)c2o1 [Example 219, (2S)-1-(7-fluorobenzofuran-2-yl)sulfonyl-N-[[2-[4-(trifluoromethyl)phenyl]-4-pyridyl]methyl]pyrrolidine-2-carboxamide]
7.27	O=C(NCc1ccnc(-c2ccc(C(F)(F)F)cc2)c1)[C@@H]1CCCN1S(=O)(=O)c1cc2ccc(F)cc2o1 [Example 220, (2S)-1-(6-fluorobenzofuran-2-yl)sulfonyl-N-[[2-[4-(trifluoromethyl)phenyl]-4-pyridyl]methyl]pyrrolidine-2-carboxamide]
8.18	O=C(NCc1ccnc(-c2ccc(C(F)(F)F)cn2)c1)[C@@H]1CCCN1S(=O)(=O)c1cc2cc(F)ccc2o1 [Example 221, (2S)-1-(5-fluorobenzofuran-2-yl)sulfonyl-N-[[2-[5-(trifluoromethyl)-2-pyridyl]-4-pyridyl]methyl]pyrrolidine-2-carboxamide]
8.62	O=C(NCc1cc(-c2ccc(OC(F)(F)F)cc2)ccn1)[C@@H]1CCCN1S(=O)(=O)c1cc2cc(F)ccc2o1 [Example 222, (2S)-1-(5-fluorobenzofuran-2-yl)sulfonyl-N-[[4-[4-(trifluoromethoxy)phenyl]-2-pyridyl]methyl]pyrrolidine-2-carboxamide]
9.06	O=C(NCc1cc(-c2ccc(C(F)(F)F)cn2)ccn1)[C@@H]1CCCN1S(=O)(=O)c1cc2cc(F)ccc2o1 [Example 223, (2S)-1-(5-fluorobenzofuran-2-yl)sulfonyl-N-[[4-[5-(trifluoromethyl)-2-pyridyl]-2-pyridyl]methyl]pyrrolidine-2-carboxamide]
9.18	O=C(NCc1cc(-c2ccc(C(F)(F)F)nc2)ncn1)[C@@H]1CCCN1S(=O)(=O)c1cc2cc(F)ccc2o1 [Example 224, (2S)-1-(5-fluorobenzofuran-2-yl)sulfonyl-N-[[6-[6-(trifluoromethyl)-3-pyridyl]pyrimidin-4-yl]methyl]pyrrolidine-2-carboxamide]
8.89	O=C(NCc1cc(-c2ccc(C(F)(F)F)cn2)ccn1)[C@@H]1C=CCN1S(=O)(=O)c1cc2cc(F)ccc2o1 [Example 225, (2S)-1-(5-fluorobenzofuran-2-yl)sulfonyl-N-[[4-[5-(trifluoromethyl)-2-pyridyl]-2-pyridyl]methyl]-2,5-dihydropyrrole-2-carboxamide]
7.60	O=C(NCc1cc(-c2ccc(C(F)(F)F)cc2)ncn1)[C@@H]1[C@@H](O)CCN1S(=O)(=O)c1cc2ccccc2o1 [Example 226, (2S,3S)-1-(benzofuran-2-ylsulfonyl)-3-hydroxy-N-[[6-[4-(trifluoromethyl)-phenyl]pyrimidin-4-yl]methyl]pyrrolidine-2-carboxamide]
7.38	O=C(NCc1cc(-c2ccc(C(F)(F)F)cn2)ccn1)[C@@H]1[C@@H](O)CCN1S(=O)(=O)c1cc2ccccc2o1 [Example 227, (2S,3S)-1-(benzofuran-2-ylsulfonyl)-3-hydroxy-N-[[4-[5-(trifluoromethyl)-2-pyridyl]-2-pyridyl]methyl]pyrrolidine-2-carboxamide]
7.49	O=C(NCc1cc(-c2ccc(C(F)(F)F)cn2)ccn1)[C@@H]1[C@@H](O)CCN1S(=O)(=O)c1cc2cc(F)ccc2o1 [Example 228, (2S,3S)-1-(5-fluorobenzofuran-2-yl)sulfonyl-3-hydroxy-N-[[4-[5-(trifluoromethyl)-2-pyridyl]-2-pyridyl]methyl]pyrrolidine-2-carboxamide]
7.92	O=C(NCc1cc(-c2ccc(C(F)(F)F)cn2)ccn1)[C@@H]1CC(F)(F)CN1S(=O)(=O)c1cc2cc(F)ccc2o1 [Example 229, (2S)-4,4-difluoro-1-(5-fluorobenzofuran-2-yl)sulfonyl-N-[[4-[5-(trifluoromethyl)-2-pyridyl]-2-pyridyl]methyl]pyrrolidine-2-carboxamide]
8.36	O=C(NCc1cc(-c2ccc(C(F)(F)F)cn2)ccn1)[C@@H]1CCN1S(=O)(=O)c1cc2cc(F)ccc2o1 [Example 230, (2S)-1-(5-fluorobenzofuran-2-yl)sulfonyl-N-[[4-[5-(trifluoromethyl)-2-pyridyl]-2-pyridyl]methyl]azetidine-2-carboxamide]
7.85	C[C@H](NS(=O)(=O)c1cc2ccccc2o1)C(=O)NCc1cc(-c2ccc(OC(F)(F)F)cc2)ncn1 [Example 231, (2S)-2-(benzofuran-2-ylsulfonylamino)-N-[[6-[4-(trifluoromethoxy)phenyl]-pyrimidin-4-yl]methyl]propanamide]
